This note sets out measurements from patent US10183032B2, “Methods for treating bacterial infection” (Ball State Innovation Corporation, priority 2012, dated 2019).

Data set [1] relates to Staphylococcus aureus. Nature of the data set: Assessment of bactericidal activity (HUVEC media). The settings on record: for CFU (×10^8 ± SEM), Compound (10 μM): 1.2 × 10^8 CFU S. aureus, 1 h in HUVEC media. The class given is cell-based. The procedure: FIG. 6B illustrates that neither cytotoxicity nor bactericidal activity is detected. Cultures of Staphylococcus aureus that had been incubated with the vehicle control DMSO or with ML 141 (1 hour, 37° C., 225 rpm) were serially diluted, plated onto blood agar, and incubated (18 hours, 37° C.). Colonies were enumerated and colony forming units (CFU)/ml determined. CFU/ml were not different amongst the groups (p>0.05 by t-test; n=2/treatment). […]

Data set [2] deals with Staphylococcus aureus. Nature of the data set: Staphylococcus aureus host cell invasion assay in HUVEC, flow cytometry. The class given is cell-based. The following applies: HUVEC; for Internalized bacteria (% control ± SEM), Structural analog: 10 μM in PEG, 18-20 hours prior to infection, fluorescently labeled S. aureus 1 hour; for inhibition of invasion compared with ML 141 (Table 1): 10 μM, flow cytometry; for activity at 10 µM: Staphylococcus aureus, 1 h, read-out: Internalized bacteria (% control ± SEM), Structural analog. The procedure: In one embodiment, human umbilical vein endothelial cells (HUVEC, Life Technologies) are cultured in M200 medium supplemented with LSGS. RAW 264.7 cells (American Type Culture Collection, ATCC, Manassas, Va.) are cultured in RPMI supplemented with 10% FBS and L-glutamine. All cell types are maintained at 5% CO2, 37° C., in 75 cm^2 vented cap flasks (Thermo-Fisher). For assays, cultured cells are plated at 1×10^5 cells/ml in 35 mm culture dishes coated with Attachment Factor. The next day, cells are pretreated in culture medium containing the vehicle control or ML 141. For compound delivery, ML 141 first is suspended into DMSO or into PEG at a concentration of 5 mM. The 5 mM solution is diluted to 1 mM in the solvent and then diluted to the final concentration for each experiment in either serum-containing or serum-free medium. For vehicle control treatment, the same volume of PEG or DMSO as that of ML 141 is added to medium. The following day, the invasion assay is performed. For the shorter duration experiments, compound is added on the same day as the invasion assay, 1 hour prior to bacteria.
In another embodiment, HUVEC (Millipore, Billerica, Mass.) are cultured in EndoGRO LS Complete Media (Millipore) and are maintained at 5% CO2, 37° C., in 75 cm^2 vented cap flasks (Thermo-Fisher). For the invasion assay, cultured cells are plated at 1×10^4 cells/ml in 96-well culture dishes coated with Attachment Factor. The next day, cells are pretreated in culture medium containing the vehicle control, ML 141, or ML 141 structural analog. For compound delivery, ML 141 and structural analogs first are suspended into PEG at a concentration of 5 mM. The 5 mM solution is diluted to 1 mM in the solvent and then is diluted to the final concentration for each experiment in serum containing medium. For vehicle control treatment, the same volume of PEG as that of ML 141 or of ML 141 structural analog is added to the medium. The following day, the invasion assay is performed. Bacteria are added directly to medium containing vehicle control, ML 141, or the ML 141 structural analog.
Two days prior to the assay, TSB is inoculated with S. aureus (American Type Culture Collection #29213) and incubated overnight (225 rpm, 37° C.). Bacteria are subcultured the next day into fresh TSB. On the day of the assay, bacteria are pelleted (10000×g, 37° C., 3 min), are washed in saline, are pelleted as above, are resuspended in saline, then fluorescently labeled by incubation with rabbit anti-mouse IgG Alexa Fluor 488 (final concentration 8 μg/ml, RT, 20 min). Protein A, a S. aureus cell surface protein, avidly binds IgG thereby labeling the bacteria. Labeled bacteria are washed twice as above and are resuspended to 3×10^8 CFU/ml in saline. Host cells are incubated with the bacteria for 1 hour (1.2×10^8 CFU/ml for same-day recovery, 5×10^6 for recovery after 48 hours, 1.4×10^7 CFU/ml; 5% CO2, 37° C.). Following infection, extracellular bacteria are removed by extensive washes with PBS and incubation of the host cells with antimicrobials that have limited mammalian membrane permeability (lysostaphin, 20 μg/ml and gentamicin, 50 μg/ml; 45 min for same-day recovery studies, 48 hours for 2-day recovery studies; 5% CO2, 37° C.). To detect the level of infection using flow cytometry, cells that have been infected with fluorescently-labeled bacteria are washed extensively with PBS, lifted from 96-well plate by incubation with trypsin, washed extensively in FACS buffer (2% BSA/0.1% sodium azide/PBS), fixed (FACS buffer containing 0.74% formaldehyde), and are counted using an Accuri flow cytometer (BD, Franklin Lakes, N.J.). They are also lifted from culture dishes using cell scrapers, pelleted, fixed (1% BSA/0.74% formaldehyde/PBS), and are counted using an Accuri flow cytometer. For enumeration of the infecting bacteria, intracellular bacteria are released from host cells using 1% saponin/PBS (20 min, 5% CO2, 37° C.) and serial dilutions are plated on TSA (16 hours, 37° C.). […]

For data set [3], the system named is Human umbilical vein endothelial cells. Nature of the data set: Cytotoxicity by propidium iodide exclusion, HUVEC. The following applies: for Cytotoxicity (in words): 10 μM, 18-20 h, Tables 4 and 5; for Mean fluorescence intensity (×10^4 ± SEM), Compound (10 μM): HUVEC pretreated 18-20 h. The class given is cell-based.
For data set [4], the target named is CDC42 (Homo sapiens, UniProt P60953). Nature of the data set: BODIPY-FL-GTP binding to CDC42.

The structures appear in SMILES notation.

As a reminder, the IC50 is the point on the concentration scale where inhibition reaches its midpoint.

Chain of CDC42 (P60953 whole entry): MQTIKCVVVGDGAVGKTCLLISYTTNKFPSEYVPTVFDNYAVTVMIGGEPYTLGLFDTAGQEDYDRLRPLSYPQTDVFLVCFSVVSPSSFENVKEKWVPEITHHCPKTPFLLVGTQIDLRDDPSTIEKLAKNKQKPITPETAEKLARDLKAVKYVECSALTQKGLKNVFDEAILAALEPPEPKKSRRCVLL

As to `COc1ccc(C2=NN(c3ccc(S(N)(=O)=O)cc3)C(c3ccc(Cl)cc3)C2)cc1` (stereo not shown) [RSM 04], the “CFU (×10^8 ± SEM), Compound (10 μM)” value in data set [1] is reported as 3.8 ± 0.8 ×10^8 CFU. For the same compound, in data set [2], the “Internalized bacteria (% control ± SEM), Structural analog” value worked out at 11 ± 1% % control and the “inhibition of invasion compared with ML 141 (Table 1)” value is listed as “inhibited invasion more than ML 141”. Further, in data set [3], the “Cytotoxicity (in words)” value is on record as “cytotoxic” and the “Mean fluorescence intensity (×10^4 ± SEM), Compound (10 μM)” value is 4.6 ± 0.2 ×10^4.

Compound `NS(=O)(=O)c1ccc(N2N=C(c3ccccc3)CC2c2ccc3c(c2)OCO3)cc1` (stereo not shown) [RSM 05] came in with an IC50 in data set [4] of 3.4 µM. The “CFU (×10^8 ± SEM), Compound (10 μM)” value in data set [1] is listed as 8.0 ± 1.7 ×10^8 CFU. In addition, the activity at 10 µM in data set [2] came to 38 ± 3%. Further, in data set [3], the “Mean fluorescence intensity (×10^4 ± SEM), Compound (10 μM)” value is reported as 3.9 ± 0.2 ×10^4.

For `COc1ccc(C2=NN(c3ccc(S(N)(=O)=O)cc3)C(c3ccccc3)C2)cc1` (stereo not shown) [RSM 07], in data set [4], the “GTP binding (IC50)” value was “only slightly higher” and the IC50 was determined as 6.2 µM. Moreover, the “CFU (×10^8 ± SEM), Compound (10 μM)” value in data set [1] is reported as 11.5 ± 1.1 ×10^8 CFU. Besides, the activity at 10 µM in data set [2] turned out to be 34 ± 2%. Also, the “Mean fluorescence intensity (×10^4 ± SEM), Compound (10 μM)” value in data set [3] is recorded as 2.5 ± 0.4 ×10^4.

For `COCCOc1ccc(C2CC(c3ccccc3)=NN2c2ccc(S(N)(=O)=O)cc2)cc1` (stereo not shown) [RSM 11], in data set [2], the “Internalized bacteria (% control ± SEM), Structural analog” value was found to be 61 ± 2% % control.

`COCCOc1ccc(C2CC(c3ccc(OC)cc3)=NN2c2ccc(S(N)(=O)=O)cc2)cc1` (stereo not shown) [RSM 12]: the “Internalized bacteria (% control ± SEM), Structural analog” value in data set [2] is 57 ± 3% % control.

With `COc1cc(C2CC(c3ccccc3)=NN2c2ccc(S(N)(=O)=O)cc2)cc(OC)c1OC` (stereo not shown) [RSM 13], the “Internalized bacteria (% control ± SEM), Structural analog” value in data set [2] is on record as 62 ± 5% % control.

In the case of `COc1ccc(C2=NN(c3ccc(S(N)(=O)=O)cc3)C(c3cc(OC)c(OC)c(OC)c3)C2)cc1` (stereo not shown) [RSM 14], the “Internalized bacteria (% control ± SEM), Structural analog” value in data set [2] is given as 71 ± 3% % control.

With `COc1ccc(C2CC(c3ccccc3)=NN2c2ccc(S(N)(=O)=O)cc2)cc1OC` (stereo not shown) [RSM 15], the IC50 in data set [4] was found to be 2.2 µM. Moreover, the “CFU (×10^8 ± SEM), Compound (10 μM)” value in data set [1] is on record as 10.1 ± 1.0 ×10^8 CFU. Further, in data set [2], the “inhibition of invasion compared with ML 141 (Table 1)” value is recorded as “inhibited invasion more than ML 141” and the activity at 10 µM worked out at 45 ± 1%. Moreover, in data set [3], the “Mean fluorescence intensity (×10^4 ± SEM), Compound (10 μM)” value was 4.0 ± 0.4 ×10^4.

Take `COCCOc1ccc(C2=NN(c3ccc(S(N)(=O)=O)cc3)C(c3ccc(OC)cc3)C2)cc1` (stereo not shown) [RSM 17]: the “Internalized bacteria (% control ± SEM), Structural analog” value in data set [2] was 67 ± 8% % control.

In the case of `COCCOc1ccc(C2=NN(c3ccc(S(N)(=O)=O)cc3)C(c3ccc(OCCOC)cc3)C2)cc1` (stereo not shown) [RSM 18], in data set [2], the “Internalized bacteria (% control ± SEM), Structural analog” value worked out at 76 ± 7% % control.

For the compound `COc1ccc(C2C(C)C(c3ccccc3)=NN2c2ccc(S(N)(=O)=O)cc2)cc1` (stereo not shown) [RSM 19], the half-inhibitory concentration (IC50) in data set [4] amounted to 13.5 µM. Also, in data set [1], the “CFU (×10^8 ± SEM), Compound (10 μM)” value is 9.4 ± 1.0 ×10^8 CFU. For the same compound, the activity at 10 µM in data set [2] came to 61 ± 2%. In data set [3], the “Mean fluorescence intensity (×10^4 ± SEM), Compound (10 μM)” value is 2.6 ± 0.01 ×10^4.

Consider `COCCOc1ccc(C2=NN(c3ccc(S(N)(=O)=O)cc3)C(c3ccc(Cl)cc3)C2)cc1` (stereo not shown) [RSM 20], for which the half-inhibitory concentration (IC50) in data set [4] came out at 46.5 µM. Also, the “CFU (×10^8 ± SEM), Compound (10 μM)” value in data set [1] was 10.0 ± 0.2 ×10^8 CFU. Moreover, the activity at 10 µM in data set [2] is 61 ± 4%. In addition, the “Mean fluorescence intensity (×10^4 ± SEM), Compound (10 μM)” value in data set [3] is 2.1 ± 0.2 ×10^4.

In the case of `COc1ccc(C2C3Cc4ccccc4C3=NN2c2ccc(S(N)(=O)=O)cc2)cc1` (stereo not shown) [RSM 21], in data set [4], the “GTP binding (IC50)” value is “only slightly higher” and the IC50 turned out to be 5.5 µM. For the same compound, the “CFU (×10^8 ± SEM), Compound (10 μM)” value in data set [1] is on record as 15.0 ± 1.1 ×10^8 CFU. Also, the activity at 10 µM in data set [2] worked out at 79 ± 3%. In data set [3], the “Mean fluorescence intensity (×10^4 ± SEM), Compound (10 μM)” value is given as 2.8 ± 0.09 ×10^4.

For the compound `COc1ccc(C2(C)CC(c3ccccc3)=NN2c2ccc(S(N)(=O)=O)cc2)cc1` (stereo not shown) [RSM 26], the “CFU (×10^8 ± SEM), Compound (10 μM)” value in data set [1] is listed as 0.8 ± 1.1 ×10^8 CFU. The “Bactericidal activity (in words)” value in data set [1] (S. aureus incubated 1 h with compound, FIG. 6B, Tables 6 and 7) is given as “bactericidal”. For the same compound, the “Internalized bacteria (% control ± SEM), Structural analog” value in data set [2] is reported as 40 ± 3% % control. In addition, in data set [3], the “Cytotoxicity (in words)” value is listed as “cytotoxic” and the “Mean fluorescence intensity (×10^4 ± SEM), Compound (10 μM)” value was 26.8 ± 2.1 ×10^4.
